What all share (type): biochemical
Experiment [1] has as its target T1, SET7/9/KMT7 (Homo sapiens, UniProt Q8WTS6).
T1 construct: the human recombinant SET7/9 (residues 2–366, C-terminus); GST (N); His (C); purchased Reaction Biology Corporation
T1 sequence (Q8WTS6 2-366): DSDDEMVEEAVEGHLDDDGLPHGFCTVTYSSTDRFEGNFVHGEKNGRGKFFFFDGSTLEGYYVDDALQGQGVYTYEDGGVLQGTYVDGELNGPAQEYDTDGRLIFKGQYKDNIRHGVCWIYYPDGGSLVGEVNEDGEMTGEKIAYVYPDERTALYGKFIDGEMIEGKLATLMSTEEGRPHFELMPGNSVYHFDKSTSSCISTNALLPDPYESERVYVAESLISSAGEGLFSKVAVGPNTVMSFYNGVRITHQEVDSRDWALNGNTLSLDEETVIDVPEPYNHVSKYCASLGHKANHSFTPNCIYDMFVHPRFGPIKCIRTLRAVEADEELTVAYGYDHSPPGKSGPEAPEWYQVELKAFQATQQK
Put plainly: HotSpot KMT activity assay, SET7/9. The note with it: 10-dose IC50 mode; read-out: ref. cmpd. IC50, SET7/9. The text has this: (§1) ; MW = 35.4 kDa; Genbank Accession # NM_018489), or the human recombinant EZH2-containing five-member polycomb repressive complex 2 (including EZH2 residues 2–746, AEBP2 2–517, EED 2–441, RbAp48 2–425, SUZ12 2–739; all full-length; with N-terminal Flag-tag on EED and N-terminal His-tag on all others; MW = 333.8 kDa; Genbank Accession # NM_001203247, NM_001114176, NM_003797, NM_005610, NM_015355), or the human recombinant G9a (residues 913–1193, C-terminus; with an N-terminal His-tag; MW = 34.6 kDa; Genbank Accession # NM_006709.3), or the human recombinant MLL1 complex (including MLL1 residues 3745–3969, C-terminus, WDR5 22–334, C-terminus, RbBP5 1–538, C-terminus, ASH2L 2–534, C-terminus, DPY-30 1–99, C-terminus; N-terminal His-tag on all subunits; MW = 212.0 kDa; Genbank Accession # NM_005933, NM_017588, NM_005057, NM_001105214, NM_0325742), or the human recombinant SET7/9 (residues 2–366, C-terminus; with a N-terminal GST-tag and a C-terminal His-tag; MW = 68.5 kDa; Genbank Accession # NM_030648), or the human recombinant SMYD3 (residues 2–428, C-terminus; C-terminal His-tag; MW = 50.1 kDa; Genbank Accession # NM_001167740), or the human recombinant SUV39H2 (residues 46–410, C-terminus; N-terminal fusion protein with a C-terminal His-tag; MW = 98.8 kDa; GenBank Accession No. NM_001193424), or the human recombinant DOT1L (residues 1–416; N-terminal GST-tag; MW = 80.0 kDa; Genbank Accession # NM_032482) was added to a solution of the proper substrate (oligo nucleosomes for ASH1L, MLL1 complex, and DOT1L, final concentration 0.05 mg/mL; core histone for EZH2 complex and SET7/9, final concentration 0.05 mg/mL; histone H3 for SUV39H2, final concentration 5 μM; histone H3 1–21 for G9a, final concentration 2.5 μM) in freshly prepared reaction buffer (50 mM Tris-HCl (pH 8.5), 5 mM MgCl2, 50 mM NaCl, 1 mM DTT, 1 mM PMSF, 1% DMSO) and gently mixed. […] After incubation for 60 min at 30 °C, the reaction mixture was delivered to filter paper for detection (as assessed by scintillation). […] Values obtained for each compound are mean ± SD determined for two separate experiments.

For experiment [2], the target named is T2, SUV39H2/KMT1B (Homo sapiens, UniProt Q9H5I1).
T2 construct: the human recombinant SUV39H2 (residues 46–410, C-terminus); His (C); purchased Reaction Biology Corporation
T2 sequence (Q9H5I1 46-410): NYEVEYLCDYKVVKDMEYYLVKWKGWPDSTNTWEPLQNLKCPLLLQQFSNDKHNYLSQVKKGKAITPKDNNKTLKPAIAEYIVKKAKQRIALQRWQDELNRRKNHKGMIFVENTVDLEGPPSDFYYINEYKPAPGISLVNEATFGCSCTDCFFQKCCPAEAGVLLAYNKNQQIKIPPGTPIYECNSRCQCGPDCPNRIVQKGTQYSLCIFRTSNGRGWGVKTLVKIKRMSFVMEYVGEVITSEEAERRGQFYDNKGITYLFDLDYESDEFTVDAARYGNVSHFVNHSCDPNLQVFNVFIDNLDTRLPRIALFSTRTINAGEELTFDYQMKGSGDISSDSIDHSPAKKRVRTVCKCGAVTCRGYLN
The experiment can be described thus: HotSpot KMT activity assay, SUV39H2. The conditions noted are these: 10-dose IC50 mode; read-out: ref. cmpd. IC50, SUV39H2.
Description: as §1

Experiment [3] concerns the target T3, MLL1/KMT2A (5 component complex) (Homo sapiens, UniProt Q03164).
T3 construct: MLL1 residues 3745–3969, C-terminus; His (N); purchased Reaction Biology Corporation
The experiment can be described thus: HotSpot KMT activity assay, MLL1.
Description: as §1

The target of experiment [4] is T4, SMYD3/KMT3E (Homo sapiens, UniProt Q9H7B4).
T4 construct: the human recombinant SMYD3 (residues 2–428, C-terminus); C-terminal His-tag; His (C); purchased Reaction Biology Corporation
T4 sequence (Q9H7B4 2-428): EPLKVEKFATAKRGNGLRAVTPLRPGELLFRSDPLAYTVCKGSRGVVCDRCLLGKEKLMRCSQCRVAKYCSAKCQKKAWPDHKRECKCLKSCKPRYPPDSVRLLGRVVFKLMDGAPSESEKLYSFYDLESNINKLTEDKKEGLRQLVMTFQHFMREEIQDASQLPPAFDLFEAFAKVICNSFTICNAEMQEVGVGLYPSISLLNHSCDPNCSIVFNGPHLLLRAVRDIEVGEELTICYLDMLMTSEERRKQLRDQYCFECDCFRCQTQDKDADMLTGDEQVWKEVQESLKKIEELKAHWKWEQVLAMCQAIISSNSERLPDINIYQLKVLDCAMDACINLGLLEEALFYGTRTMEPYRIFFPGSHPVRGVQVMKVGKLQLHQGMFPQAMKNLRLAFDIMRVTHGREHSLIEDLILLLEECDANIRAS
Put plainly: HotSpot KMT activity assay, SMYD3.
Description: as §1

SMILES strings stand for the structures.

As to `Nc1ncnc2c1ncn2[C@@H]1O[C@H](CSCC[C@H](N)C(=O)O)[C@@H](O)[C@H]1O` [SAH, S-5′-adenosyl-L-homocysteine, reference compound], the IC50 came to 70.4 µM in experiment [1], 37.3 µM in experiment [2], 0.3 µM in experiment [3] and 15.9 µM in experiment [4].

These data come from PMC10578352, “Identification of a Protein Arginine Methyltransferase 7 (PRMT7)/Protein Arginine Methyltransferase 9 (PRMT9) Inhibitor” (Journal of Medicinal Chemistry, 2023).
